Tests used:
[1] = test system: A549 cells; assay: Viability of A549 cells; format: cell-based, human; details: A549 cells, single agent
Description: (A) Pgrmc1 (SEQ ID NO: 7) shares homology with AtMAPR2 (SEQ ID NO: 8) (underlined residues), which was the target for a screen for small molecule ligands. The putative heme-binding Tyr106 and Tyr112 are indicated with black boxes. (B) The molecular structure of AG-205 includes multiple aromatic components. (C) Spectroscopic scan of Pgrmc1 with vehicle control compared with vehicle plus 50 µM AG-205. The decrease in relative absorbance at 400 nm is consistent with an AG-205-induced change in the spectral properties of Pgrmc1-heme. The scan is representative of four separate scans using different Pgrmc1 protein preparations. The lower scan is a comparison of purified Pgrmc1 without and with the vehicle control (DMSO). Panels D (A549 cells) and E (MDA-MB-231 cells) are viability assays of cells maintained in 0.1% serum (solid line) or 10% serum (dashed line) and treated with increasing doses of AG-205. Percent viability was determined by cell counting, and “% viability” refers to the cell number relative to the untreated control.
(§1) Tissue culture. MDA-MB-468 cells were a kind gift from Dr. Rina Plattner of the University of Kentucky and were maintained in medium consisting of Dulbecco's Modified Eagle Medium containing 10% serum supreme (Fisher) and antibiotics. Cells were grown at 37° C. in 5% CO2 in air. A549 and HCC827 lung cancer cells, as well as SK-Br-3 breast cancer cells were obtained from the ATCC (American Type Culture Collection) and were grown under the same conditions. The H1650 lung cancer cell line was a kind gift from Dr. Heinz Kohler of the University of Kentucky. The Pgrmc1 ligand AG-205 was purchased from Timtec, Inc. The EGFR inhibitor AG1478 was from Biomol, Inc. and was used at a concentration range of 0.8-40 μM.
(§2) Proliferation, anchorage-independent growth and migration assays. For growth curves, cells were plated in 24 well dishes and grown in 10% serum-containing medium. At various times, the cells were harvested with trypsin and fixed with formaldehyde added to a final concentration of 3.7%. Following the harvest of the final time point, the cells from each time point were counted using a Bright-line hemocytometer (Hausser Scientific).
(§3) MTT viability assays were performed as described previously. Briefly, cells were plated in 96-well tissue culture dishes and grown in various media with different drug doses. The cells were then incubated with 0.5 mg/ml of 3-[4,5-dimethylthiazol-2-y]-2,5-diphenyltetrazolium bromide for 1.5 hours, at which time the media was removed, the precipitated crystals were dissolved in dimethyl sulfoxide, and the absorbance at 590 nm was measured using a Bio-Tek μQuant spectrophotometer.

[2] = test system: MDA-MB-468 cells; assay: Viability / proliferation of MDA-MB-468 cells; format: cell-based, human; details: MDA-MB-468 cells, increasing doses of AG1478, MTT assay
Description: as §1, §2, §3

COc1cc2ncnc(Nc3cccc(Cl)c3)c2cc1OC [AG1478, reference compound] was tested. Which “decrease in viability / cells killed” value [1] did it give?
Its value is 25%.

And the “change in proliferation rate between siCON and siPGR-transfected cells” value [2]?
The value was “largely blocked”.

— patent US9724337B2, “AG-205 for the treatment of breast cancer” (University of Kentucky Research Foundation, priority 2009, dated 2017)
